In patent US9278968B2, “Imidazopyridine compounds” (ASTELLAS PHARMA INC., priority 2012, dated 2016):

Biological target: human purified sGC (heterodimer of sGCα1 and sGCβ1) (Homo sapiens (Human), UniProt Q02108+Q02153)
Assay: sGC activation test (cGMP produced, HTRF)
Format: biochemical
Settings: for EC50: maximum activity of Preparation Example 200 compound (maximum 100 μM) taken as 100%, with SNP, read-out: EC50 (concentration giving 50% of maximum activity)
Method: The activity of sGC was evaluated by measuring the amount of cGMP produced by human purified sGC.
Using an sGCα 1 gene (NCBI accession No. BC028384.2) and an sGCβ1 gene (NCBI accession No. BC047620.1), an N-terminal FLAG tag-fused sGCα1 and an sGCβ1 expression baculovirus were prepared. These viruses were transfected into insect cells Sf9 (Cat. No. 11496-015, Gibco) to express a protein. From the cell lysates of the insect cells, heterodimers of the N-terminal FLAG tag-fused sGCα1 and sGCβ1 were purified with an M2 Affinity Gel (Sigma-Aldrich, Inc.) to obtain a human sGC.
An Example compound was dissolved in DMSO and diluted 20-fold with ultrapure water. 2 μL of the diluted Example compound solution (maximum concentration of 100 μM), 2 μL of a substrate solution [0.5 μM triethanolamine buffer solution, 0.03 μM dithiothreitol, 0.01 μM GTP, 0.04 μM MgCl2, and 0.03 μM sodium nitroprusside (SNP)], and 6 μL of a human enzyme suspension were added to 384-well plates (manufactured by Greiner Bio-One), and incubated at room temperature for one hour. The measurement of the amount of cGMP was carried out, using an HTRF reagent (Cisbio).
The sGC activation action of the Example compound was calculated as an Example compound concentration which gives 50% of a maximum activity (EC50), in which the maximum activity by the addition of a compound shown in Preparation Example 200, 8-(cyclohexylmethoxy)-N-[(1R)-2-hydroxy-1-phenylethyl]-2-methylimidazo[1,2-a]pyridine-3-carboxamide hydrochloride (maximum 100 μM), is taken as 100%. Further, the maximum activity of sGC with the addition of 8-(cyclohexylmethoxy)-N-[(1R)-2-hydroxy-1-phenylethyl]-2-methylimidazo[1,2-a]pyridine-3-carboxamide hydrochloride is 10-fold or more relative to the sGC activation without the addition of the compound, and it is recognized that the compound has a good sGC activating action. […] The test results of some Example compounds that are the compounds of the formula (I) of the present invention are shown below. Further, in Tables, Ex. represents Example number.

Chain of human purified sGC (heterodimer of sGCα1 and sGCβ1) (Q02108 whole entry): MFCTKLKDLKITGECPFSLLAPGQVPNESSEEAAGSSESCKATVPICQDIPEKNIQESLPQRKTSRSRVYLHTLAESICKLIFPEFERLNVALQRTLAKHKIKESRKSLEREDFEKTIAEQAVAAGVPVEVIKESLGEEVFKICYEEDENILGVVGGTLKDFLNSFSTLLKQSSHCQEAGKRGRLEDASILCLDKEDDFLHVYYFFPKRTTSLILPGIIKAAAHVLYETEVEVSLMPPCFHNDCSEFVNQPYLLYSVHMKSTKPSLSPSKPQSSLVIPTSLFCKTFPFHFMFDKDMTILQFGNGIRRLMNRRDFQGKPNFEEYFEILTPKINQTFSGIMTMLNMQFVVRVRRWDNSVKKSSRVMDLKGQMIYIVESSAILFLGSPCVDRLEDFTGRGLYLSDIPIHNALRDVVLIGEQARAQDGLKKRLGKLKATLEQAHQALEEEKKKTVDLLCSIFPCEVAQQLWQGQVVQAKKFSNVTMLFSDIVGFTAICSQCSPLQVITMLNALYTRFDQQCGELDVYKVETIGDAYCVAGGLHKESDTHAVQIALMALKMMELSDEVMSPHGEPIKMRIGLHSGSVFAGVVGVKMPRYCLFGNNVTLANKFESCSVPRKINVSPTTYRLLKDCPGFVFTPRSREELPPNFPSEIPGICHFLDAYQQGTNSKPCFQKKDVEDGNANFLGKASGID
Chain of human purified sGC (heterodimer of sGCα1 and sGCβ1) (Q02153 whole entry): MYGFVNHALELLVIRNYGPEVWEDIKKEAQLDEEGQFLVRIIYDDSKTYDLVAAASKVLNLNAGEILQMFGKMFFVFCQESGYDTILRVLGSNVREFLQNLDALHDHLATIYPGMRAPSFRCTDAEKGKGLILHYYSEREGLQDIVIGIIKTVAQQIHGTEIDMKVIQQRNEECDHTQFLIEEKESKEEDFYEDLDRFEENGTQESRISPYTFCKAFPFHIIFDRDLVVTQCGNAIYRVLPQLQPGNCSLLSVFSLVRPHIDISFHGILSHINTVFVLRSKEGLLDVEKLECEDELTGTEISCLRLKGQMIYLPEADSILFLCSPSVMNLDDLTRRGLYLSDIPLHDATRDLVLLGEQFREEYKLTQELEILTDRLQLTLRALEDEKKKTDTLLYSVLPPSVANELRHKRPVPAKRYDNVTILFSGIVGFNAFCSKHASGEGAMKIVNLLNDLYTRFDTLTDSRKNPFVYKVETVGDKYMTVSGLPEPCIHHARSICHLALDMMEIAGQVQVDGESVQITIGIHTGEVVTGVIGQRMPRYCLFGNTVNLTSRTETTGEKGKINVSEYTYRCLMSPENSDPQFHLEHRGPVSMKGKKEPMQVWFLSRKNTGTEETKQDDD

Row | SMILES | EC50 | also measured
1 | CCc1nnc([C@H](CO)NC(=O)c2c(C)nc3c(OCC4CCCCC4)cccn23)o1 [Example 45] | 9.1 µM | 
2 | Cc1ccc(C(CO)(CO)NC(=O)c2c(C)nc3c(OCc4c(F)cccc4F)cccn23)nc1 [Example 56] | 8.5 µM | 
3 | Cc1cnc(C(CO)(CO)NC(=O)c2c(C)nc3c(OCc4c(F)cccc4F)cccn23)o1 [Example 60] | 12 µM | 
4 | Cc1nc2c(OCc3c(F)cccc3F)cccn2c1C(=O)NC(C)(CO)c1cncnc1 (centres unmarked) [Example 48] | 2.7 µM | 
5 | Cc1nc2c(OCc3c(F)cccc3F)cccn2c1C(=O)NC(C)(CO)c1ncccn1 (centres unmarked) [Example 14] | 4.4 µM | 
6 | Cc1nc2c(OCC3CCCCC3)cccn2c1C(=O)N[C@@H](CO)c1nnc(C2CC2)o1 [Example 47] | 13 µM | 
7 | [C-]#[N+]c1cccc([C@](C)(CO)NC(=O)c2c(C)nc3c(OCC4CCCCC4)cccn23)c1 [Example 85] | 2.9 µM | 
8 | Cc1nc2c(OCC3CCCCC3)cccn2c1C(=O)N[C@]1(c2ccccn2)C[C@@H](O)[C@@H](O)C1 [Example 68] | 14 µM | 
9 | Cc1nnc([C@H](CO)NC(=O)c2c(C)nc3c(OCC4CCCCC4)cccn23)o1 [Example 43] | 14 µM | 
10 | COc1ccc(C(CO)(CO)NC(=O)c2c(C)nc3c(OCc4c(F)cccc4F)cccn23)cn1 [Example 58] | 3.3 µM | 
11 | Cc1nc2c(OCC3CCCCC3)cccn2c1C(=O)N[C@@H](CO)c1ccccc1.Cl [Preparation Example 200, 8-(cyclohexylmethoxy)-N-[(1R)-2-hydroxy-1-phenylethyl]-2-methylimidazo[1,2-a]pyridine-3-carboxamide hydrochloride, reference compound] |  | maximum activity of sGC relative to sGC activation without the addition of the compound (maximum 100 μM): ≥ 10 fold
12 | Cc1nc2c(OCc3c(F)cccc3F)cccn2c1C(=O)NCc1ccccc1[C@H](O)[C@H](C)O [Example 30] | 5.6 µM | 
13 | Cc1nc2c(OCC3CCCCC3)cccn2c1C(=O)NC(C)(CO)c1nnn(CCO)n1 (centres unmarked) [Example 104] | 7.5 µM | 
14 | CCc1nnc(C(CO)(CO)NC(=O)c2c(C)nc3c(OCC4CCCCC4)cccn23)o1 [Example 99] | 17 µM | 
15 | Cc1nc2c(OCc3c(F)cccc3F)cccn2c1C(=O)N[C@@H](CO)c1nnn(C(C)C)n1 [Example 110] | 12 µM | 
16 | Cc1nc2c(OCc3c(F)cccc3F)cccn2c1C(=O)N[C@@](C)(CO)c1nc(CO)cs1 [Example 21] | 4 µM | 
17 | Cc1nc2c(OCc3c(F)cccc3F)cccn2c1C(=O)NC(CO)c1cnn(C)c1 (centres unmarked) [Example 49] | 25 µM | 
18 | Cc1cnc([C@H](CO)NC(=O)c2c(C)nc3c(OCc4c(F)cccc4F)cccn23)s1 [Example 16] | 2.1 µM | 
19 | Cc1nc2c(OCC3CCCCC3)cccn2c1C(=O)N[C@@](C)(CO)c1cccc(-c2nnn(C)n2)c1 [Example 102] | 2.6 µM | 
20 | OCc1ccc(-c2nn(Cc3ccccc3)c3ccccc23)o1 [YC-1, [5-(1-benzyl-1H-indazol-3-yl)-2-furyl]methanol, reference compound] | 50 µM | maximum activity relative to maximum activity of Preparation Example 200 compound (maximum activity of Preparation Example 200 compound = 100%): 52%

Row | SMILES | EC50 | also measured
21 | Cc1nc2c(OCc3cccc(F)c3F)cccn2c1C(=O)NC(CO)(CO)c1ccc(F)cc1 [Example 61] | 6.4 µM | 
22 | Cc1nc2c(OCc3c(F)cccc3F)cccn2c1C(=O)NC(C)(CO)c1ccc(CO)cc1 (centres unmarked) [Example 4, 8-[(2,6-difluorobenzyl)oxy]-N-{1-hydroxy-2-[4-(hydroxymethyl)phenyl]propan-2-yl}-2-methylimidazo[1,2-a]pyridine-3-carboxamide] | 1.4 µM | 
23 | Cc1nc2c(OCC3CCCCC3)cccn2c1C(=O)N[C@@](C)(CO)c1cccc(C(N)=O)c1 [Example 13] | 0.84 µM | 
24 | Cc1nc2c(OCc3c(F)cccc3F)cccn2c1C(=O)NC(CO)(CO)c1ccc(F)cn1 [Example 57] | 3.7 µM | 
25 | Cc1nc2c(OCC3CCCCC3)cccn2c1C(=O)NC(C)(CO)c1nnc(C(F)(F)F)o1 (centres unmarked) [Example 92] | 1.4 µM | 
26 | Cc1nc2c(OCc3c(F)cccc3F)cccn2c1C(=O)NC(CO)(CO)c1cnn(C)c1 [Example 71] | 21 µM | 
27 | Cc1nc2c(OCc3c(F)cccc3F)cccn2c1C(=O)NC(C)(CO)c1nnn(CC2CC2)n1 (centres unmarked) [Example 103] | 6.1 µM | 
28 | Cc1nc2c(OCc3c(F)cccc3F)cccn2c1C(=O)NC(C)(CO)c1nnc(C2CC2)o1 (centres unmarked) [Example 87] | 5.9 µM | 
29 | Cc1ncc([C@H](CO)NC(=O)c2c(C)nc3c(OCc4c(F)cccc4F)cccn23)s1 [Example 24] | 3.6 µM | 
30 | Cc1nc2c(OCC3CCCCC3)cccn2c1C(=O)N[C@@](C)(CO)c1cccc(C(=O)O)c1 [Example 3, 3-[(2R)-2-({ [8-(cyclohexylmethoxy)-2-methylimidazo[1,2-a]pyridin-3-yl]carbonyl}amino)-1-hydroxypropan-2-yl]benzoic acid] | 0.72 µM | 
31 | CCc1nnc(C(C)(CO)NC(=O)c2c(C)nc3c(OCC4CCCCC4)cccn23)o1 (centres unmarked) [Example 86] | 5.6 µM | 
32 | Cc1nn(C)cc1C(C)(CO)NC(=O)c1c(C)nc2c(OCc3c(F)cccc3F)cccn12 (centres unmarked) [Example 94] | 14 µM | 
33 | Cc1nc2c(OCC3CCCCC3)cccn2c1C(=O)N[C@@H](CO)c1nnn(C)n1 [Example 34] | 11 µM | 
34 | Cc1nc2c(OCC3CCCCC3)cccn2c1C(=O)NC(CO)(CO)c1nnn(C(F)F)n1 [Example 97] | 3.5 µM | 
35 | Cc1nc2c(OCC3CCCCC3)cccn2c1C(=O)NC(CO)(CO)c1nnc(C2CC2)o1 [Example 100] | 20 µM | 
36 | Cc1nc2c(OCc3c(F)cccc3F)cccn2c1C(=O)N[C@@](C)(CO)c1cccc(C(N)=O)c1 [Example 12] | 0.78 µM | 
37 | COCCn1nnc(C(C)(CO)NC(=O)c2c(C)nc3c(OCc4c(F)cccc4F)cccn23)n1 (centres unmarked) [Example 74] | 12 µM | 
38 | Cc1nc2c(OCc3c(F)cccc3F)cccn2c1C(=O)NC(C)(CO)c1nnn(CC(C)(C)O)n1 (centres unmarked) [Example 105, 8-[(2,6-difluorobenzyl)oxy]-N-{1-hydroxy-2-[2-(2-hydroxy-2-methylpropyl)-2H-tetrazol-5-yl]propan-2-yl}-2-methylimidazo[1,2-a]pyridine-3-carboxamide] | 11 µM | 
39 | Cc1nc2c(OCc3c(F)cccc3F)cccn2c1C(=O)NC(C)(CO)c1nnn(CCO)n1 (centres unmarked) [Example 75] | 9.1 µM | 
40 | Cc1nnc(C(CO)(CO)NC(=O)c2c(C)nc3c(OCC4CCCCC4)cccn23)o1 [Example 98] | 24 µM | 

Row | SMILES | EC50 | also measured
41 | Cc1nc2c(OCc3c(F)cccc3F)cccn2c1C(=O)N[C@]1(c2ccccc2)CC[C@@H](O)[C@H]1O (racemic) [Example 27] | 12 µM | 
42 | Cc1nc2c(OCC3CCCCC3)cccn2c1C(=O)NC(C)(CO)c1nnc(C2CC2)o1 (centres unmarked) [Example 88] | 5.3 µM | 
43 | Cc1nc2c(OCC3CCCCC3)cccn2c1C(=O)NC(CO)(CO)c1nnn(C)n1 [Example 66] | 16 µM | 
44 | Cc1nc2c(OCC3CCCCC3)cccn2c1C(=O)N[C@@H](CO)c1nnnn1C [Example 29] | 17 µM | 
45 | Cc1nc2c(OCc3c(F)cccc3F)cccn2c1C(=O)NC(C)(CO)c1cnn(C)c1 (centres unmarked) [Example 50] | 7.9 µM | 
46 | CCn1cc(C(CO)(CO)NC(=O)c2c(C)nc3c(OCc4c(F)cccc4F)cccn23)cn1 [Example 101] | 26 µM | 
47 | Cc1ncc(C(CO)(CO)NC(=O)c2c(C)nc3c(OCc4c(F)cccc4F)cccn23)s1 [Example 78] | 5.1 µM | 
48 | CCc1nnc([C@H](CO)NC(=O)c2c(C)nc3c(OCc4c(F)cccc4F)cccn23)o1 [Example 44] | 16 µM | 
49 | Cc1nc2c(OCc3ccccc3F)cccn2c1C(=O)N[C@@](C)(CO)c1cccc(CO)c1 [Example 15] | 2.8 µM | 
50 | Cc1nn(C)cc1C(CO)(CO)NC(=O)c1c(C)nc2c(OCc3c(F)cccc3F)cccn12 [Example 109] | 23 µM | 
51 | Cc1nc2c(OCc3c(F)cccc3F)cccn2c1C(=O)NC(CO)(CO)c1ccn(C)n1 [Example 95] | 18 µM | 
52 | Cc1nc2c(OCc3c(F)cccc3F)cccn2c1C(=O)NC(CO)(CO)c1cccc(CO)c1 [Example 53] | 1.7 µM | 
53 | Cc1nc2c(OCc3cccc(F)c3F)cccn2c1C(=O)NC(C)(CO)c1nnn(C)n1 (centres unmarked) [Example 82] | 21 µM | 
54 | Cc1nc2c(OCc3c(F)cccc3F)cccn2c1C(=O)N[C@@H](CO)c1nnc(C2CC2)o1 [Example 46] | 20 µM | 
55 | Cc1nc2c(OCC3CCCCC3)cccn2c1C(=O)N[C@@](C)(CO)c1cccc(-c2nn[nH]n2)c1 [Example 111] | 0.56 µM | 
56 | Cc1nc2c(OCc3c(F)cccc3F)cccn2c1C(=O)NC(C)(CO)c1nnn(CC(C)O)n1 (centres unmarked) [Example 106] | 9.1 µM | 
57 | Cc1nc2c(OCc3c(F)cccc3F)cccn2c1C(=O)NC(CO)(CO)c1nnn(C)n1 [Example 64] | 30 µM | 
58 | Cc1ccnc(C(CO)(CO)NC(=O)c2c(C)nc3c(OCc4c(F)cccc4F)cccn23)c1 [Example 62] | 6.5 µM | 
